Measured values as given in article PMC7083880 (Nature Communications, 2020).
“And” between values parts separate entries of the source, which are not always exact repeats. Equal values may be shown once.

What was measured:
[1] = system: p53-null 4T1 cell tumors in nude mice; test: In vivo tumor growth, 4T1 cells in nude mice; design: species or system mouse
Procedure: For each experimental condition, 7 mice were used. b Fourteen nude mice were injected with Calu-6 cells to promote tumor development. […] The arrow indicates the starting time of the exposure to DMSO or DAP. For each experimental condition, 7 mice were used. […] GAPDH was used as loading control. A molecular weight marker is indicated to the left of the gel. The results presented in this figure are representative of two independent experiments. p-values (p) were calculated using Student’s t-test. Source data are provided as a Source Data file.
Next, the capacity of DAP to correct UGA nonsense mutations in vivo was assessed in a mouse model. Four-week-old immunodeficient nude mice were injected with an identical number of Calu-6 cells carrying a UGA nonsense mutation in the TP53 gene, of HCC-GR6 cells having a wild-type TP53 gene or of p53-null 4T1 cells. […] The slower growth of Calu-6-cell-derived tumors in DAP-treated mice is thus likely due to rescue of p53 protein synthesis in these tumors, as expected on the basis of our cell culture experiments and as observed after western-blotting applied to protein extracts of tumors from DAP-treated mice (Supplementary Fig. 8B). Because of the small size of the Calu-6 tumors in DAP-treated mice and thus the high probability of collecting mouse cells upon tumor excision, quantitation of p53 was done in another experiment.
To initiate tumor growth, 6-week-old nude mice received subcutaneously 10 million cells suspended in PBS. […] Tumors were measured three times weekly for 5 weeks to determine the tumor volume by the following formula: l (mm) × L (mm) × L (mm). The tumors were then collected and a fraction was used for western blot analysis after protein extraction. All in vivo experiments complied with all relevant ethical regulations for animal testing and research and were authorized by the Ethic Committee 075 under the number 12971-2018010815336092.

[2] = system: endogenous TP53 gene with UAG nonsense mutation in Caco-2 cells; test: p53 protein western blot, Caco-2 cells; format: cell-based, human; settings: Caco-2 (UAG); 24 h
Procedure: After 24 h of treatment, proteins were extracted from the cells and the p53 protein was assessed by western blotting (Fig. 2a). After DMSO mock treatment, as anticipated, no p53 protein was detected, because of the presence of the PTC in p53 mRNA[33].
The three leftmost lanes show twofold serial dilutions of untreated HeLa cell extract. The molecular weight is indicated to the left of each gel. b Schematic representation of the construct used to measure the function of p53. The construct carries a cDNA encoding the firefly luciferase under a promoter having two p53-responsive elements (underlined). […] The level of p21 mRNA is related to the amount of functional p53 protein synthesized in the cell. The results presented in panels b and c are representative of at least two independent experiments., p-values (p) were calculated using Student’s t-test. Source data are provided as a Source Data file. […]
The equivalent of 2.5 × 10^5 cells was subjected to 10% SDS–PAGE before transfer of the proteins to a nitrocellulose membrane. […] Antibodies were then detected with Super Signal West Femto Maximum Sensitivity Substrate (Pierce-Biotechnology, Rockford, IL, USA). Quantifications were performed with QuantityOne software (Biorad). […]

Nc1nc(N)c2[nH]cnc2n1 [DAP, 2,6-diaminopurine]
tumor size, Average ([1]; 4T1, day 4, average of 7 mice): 0.036
tumor size, individual mice ([1]; 4T1, day 4, mice 1-7): 0.048 and 0.027
tumor size, Average ([1]; 4T1, day 6, average of 7 mice): 0.08071
tumor size, individual mice ([1]; 4T1, day 6, mice 1-7): 0.125 and 0.064 and 0.1 and 0.048
tumor size, Average ([1]; 4T1, day 8, average of 7 mice): 0.09843
tumor size, individual mice ([1]; 4T1, day 8, mice 1-7): 0.125 and 0.1 and 0.064
tumor size, Average ([1]; 4T1, day 11, average of 7 mice): 0.1407
tumor size, individual mice ([1]; 4T1, day 11, mice 1-7): 0.18 and 0.125
tumor size, Average ([1]; 4T1, day 13, average of 7 mice): 0.227
tumor size, individual mice ([1]; 4T1, day 13, mice 1-7): 0.294 and 0.18 and 0.245 and 0.216
tumor size, Average ([1]; 4T1, day 15, average of 7 mice): 0.401
tumor size, individual mice ([1]; 4T1, day 15, mice 1-7): 0.448 and 0.567 and 0.294 and 0.343
tumor size, Average ([1]; 4T1, day 18, average of 7 mice): 0.6964
tumor size, individual mice ([1]; 4T1, day 18, mice 1-7): 0.648 and 0.8 and 0.567 and 0.9 and 0.512
tumor size, Average ([1]; 4T1, day 20, average of 7 mice): 0.9223
tumor size, individual mice ([1]; 4T1, day 20, mice 1-7): 0.9 and 0.968 and 0.8 and 1.44 and 0.648
tumor size, Average ([1]; 4T1, day 22, average of 7 mice): 1.032
tumor size, individual mice ([1]; 4T1, day 22, mice 1-7): 0.9 and 0.968 and 0.8 and 1.859
tumor size, Average ([1]; 4T1, day 25, average of 7 mice): 1.344
tumor size, individual mice ([1]; 4T1, day 25, mice 1-7): 1.089 and 1.44 and 1 and 2.7
tumor size, Average ([1]; 4T1, day 27, average of 7 mice): 1.752
tumor size, individual mice ([1]; 4T1, day 27, mice 1-7): 1.69 and 1.859 and 1.44 and 1.584 and 1.21 and 3.15 and 1.331
tumor size, Average ([1]; 4T1, day 29, average of 7 mice): 2.057
tumor size, individual mice ([1]; 4T1, day 29, mice 1-7): 1.69 and 2.028 and 1.859 and 1.584 and 4.046 and 1.331
tumor size, Average ([1]; 4T1, day 32, average of 7 mice): 2.639
tumor size, individual mice ([1]; 4T1, day 32, mice 1-7): 2.156 and 2.7 and 2.028 and 5.184 and 2.352
tumor size, Average ([1]; 4T1, day 34, average of 7 mice): 3.227
tumor size, individual mice ([1]; 4T1, day 34, mice 1-7): 2.925 and 2.548 and 2.744 and 5.776
tumor size, Average ([1]; 4T1, day 36, average of 7 mice): 3.574
tumor size, individual mice ([1]; 4T1, day 36, mice 1-7): 2.925 and 3.15 and 7.2 and 2.744
Tumor growth vs DMSO, in words ([1]; 4T1, nude mice, force-fed daily, 5 weeks): no significant difference in tumor growth
Synthesis of p53 protein (western blot) [2]: not in Caco-2 cells
